Measured values reported in US9833497B2, “Human originated EGF domain proteins and use of the same” (CHENGDU SOURCEBIO LIMITED-LIABILITY COMPANY, priority 2013, dated 2017).

Experiments:
Type in all cases: cell-based
E. coli DH5α = experiment: Antibacterial activity: MIC and growth curve against E. coli DH5α in 96-well plate; conditions: minimal inhibitory concentration against E. coli DH5α; 96-well plate, 5×10^5 CFU/mL, 37° C., judged after 8 h
Method in brief: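 Log-phase DH5α (OD600 about 0.5, 37° C, 185 rpm in LB) was pelleted, resuspended in fresh LB and seeded at 5×10^5 CFU/mL with recombinant protein at 50, 25 and 12.5 μg/mL (two-fold series), in triplicate. Plates were shaken at 175 rpm, 37° C, and OD600 was read every 30 min. MIC was the lowest concentration with no growth.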

E. coli BL21 = experiment: MIC against Gram-negative bacteria: E. coli BL21; conditions: 5×10^5 CFU/mL
Method in brief: (§1)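 Read-out is absence of bacterial growth, with MIC set at the lowest recombinant protein concentration achieving it. Bacteria, pre-grown in LB to McFarland 0.5 and resuspended, were exposed at 5×10^5 CFU/mL to two-fold diluted human EGF domain proteins in triplicate at 37° C, 175 rpm.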

Pseudomonas aeruginosa = experiment: MIC against Gram-negative bacteria: Pseudomonas aeruginosa; conditions: 5×10^5 CFU/mL
Method in brief: as §1

Klebsiella pneumonia = experiment: MIC against Gram-negative bacteria: Klebsiella pneumonia; conditions: 5×10^5 CFU/mL
Method in brief: as §1

Enterobacter cloacae = experiment: MIC against Gram-negative bacteria: Enterobacter cloacae; conditions: 5×10^5 CFU/mL
Method in brief: as §1

Aeromonas hydrophila = experiment: MIC against Gram-negative bacteria: Aeromonas hydrophila; conditions: 5×10^5 CFU/mL
Method in brief: as §1

Citrobacter diversus = experiment: MIC against Gram-negative bacteria: Citrobacter diversus; conditions: 5×10^5 CFU/mL
Method in brief: as §1

Moraxella catarrhalis = experiment: MIC against Gram-negative bacteria: Moraxella catarrhalis; conditions: 5×10^5 CFU/mL
Method in brief: as §1

Proteus mirabilis = experiment: MIC against Gram-negative bacteria: Proteus mirabilis; conditions: 5×10^5 CFU/mL
Method in brief: as §1

Proteus vulgaris = experiment: MIC against Gram-negative bacteria: Proteus vulgaris; conditions: 5×10^5 CFU/mL
Method in brief: as §1

Serratia marcescens = experiment: MIC against Gram-negative bacteria: Serratia marcescens; conditions: 5×10^5 CFU/mL
Method in brief: as §1

[1] = E. coli BL21, 96-well plate, 37° C., 10 h
[2] = Pseudomonas aeruginosa, 96-well plate, 37° C., 10 h
[3] = Klebsiella pneumonia, 96-well plate, 37° C., 10 h
[4] = Enterobacter cloacae, 96-well plate, 37° C., 10 h
[5] = Aeromonas hydrophila, 96-well plate, 37° C., 10 h
[6] = Citrobacter diversus, 96-well plate, 37° C., 10 h
[7] = Moraxella catarrhalis, 96-well plate, 37° C., 10 h
[8] = Proteus mirabilis, 96-well plate, 37° C., 10 h
[9] = Proteus vulgaris, 96-well plate, 37° C., 10 h
[10] = Serratia marcescens, 96-well plate, 37° C., 10 h
[11] = E. coli BL21, 10 h cultivation at 37° C.

Substance: PRT1216 (YPDACKRSPCQHGGSCTGLPSGGYQCTCLSQFTGRNCE; listed as Homo sapiens)
- MIC (E. coli DH5α): 50 mg/L
- MIC against E. coli BL21 (E. coli BL21; [1]): 12.5 mg/L
- MIC against P. aeruginosa (Pseudomonas aeruginosa; [2]): 50 mg/L
- MIC against K. pneumonia (Klebsiella pneumonia; [3]): 12.5 mg/L
- MIC against E. cloacae (Enterobacter cloacae; [4]): 25 mg/L
- MIC against A. hydrophila (Aeromonas hydrophila; [5]): 25 mg/L
- MIC against C. diversus (Citrobacter diversus; [6]): 50 mg/L
- MIC against M. catarrhalis (Moraxella catarrhalis; [7]): 12.5 mg/L
- MIC against P. mirabilis (Proteus mirabilis; [8]): 50 mg/L
- MIC against P. vulgaris (Proteus vulgaris; [9]): 25 mg/L
- MIC against S. marcescens (Serratia marcescens; [10]): 12.5 mg/L

Substance: PRT1486 (TVKSCDCLNGGSCVSDRNFSPGSGVYLCVCLPGFHGSLCE; listed as Homo sapiens)
- MIC (E. coli DH5α): 12.5 mg/L
- MIC against E. coli BL21 (E. coli BL21; [11]): 12.5 mg/L
- MIC against P. aeruginosa (Pseudomonas aeruginosa; Pseudomonas aeruginosa, 10 h cultivation at 37° C.): 25 mg/L
- MIC against K. pneumonia (Klebsiella pneumonia; Klebsiella pneumonia, 10 h cultivation at 37° C.): 25 mg/L
- MIC against E. cloacae (Enterobacter cloacae; Enterobacter cloacae, 10 h cultivation at 37° C.): 12.5 mg/L
- MIC against A. hydrophila (Aeromonas hydrophila; Aeromonas hydrophila, 10 h cultivation at 37° C.): 25 mg/L
- MIC against C. diversus (Citrobacter diversus; Citrobacter diversus, 10 h cultivation at 37° C.): 12.5 mg/L
- MIC against M. catarrhalis (Moraxella catarrhalis; Moraxella catarrhalis, 10 h cultivation at 37° C.): 25 mg/L
- MIC against P. mirabilis (Proteus mirabilis; Proteus mirabilis, 10 h cultivation at 37° C.): 12.5 mg/L
- MIC against P. vulgaris (Proteus vulgaris; Proteus vulgaris, 10 h cultivation at 37° C.): 12.5 mg/L
- MIC against S. marcescens (Serratia marcescens; Serratia marcescens, 10 h cultivation at 37° C.): 12.5 mg/L

Substance: PRT520 (CRCNAGGSFSEVCHSQTGQCECRANVQGQRCDKCKAGTFGLQSARGCVP; listed as Homo sapiens)
- MIC (E. coli DH5α): 25 mg/L
- MIC against E. coli BL21 (E. coli BL21; 96-well plate, 37° C., 10 h): 12.5 mg/L
- MIC against P. aeruginosa (Pseudomonas aeruginosa; 96-well plate, 37° C., 10 h): 25 mg/L
- MIC against K. pneumonia (Klebsiella pneumonia; 96-well plate, 37° C., 10 h): 12.5 mg/L
- MIC against E. cloacae (Enterobacter cloacae; 96-well plate, 37° C., 10 h): 25 mg/L
- MIC against A. hydrophila (Aeromonas hydrophila; 96-well plate, 37° C., 10 h): 12.5 mg/L
- MIC against C. diversus (Citrobacter diversus; 96-well plate, 37° C., 10 h): 25 mg/L
- MIC against M. catarrhalis (Moraxella catarrhalis; 96-well plate, 37° C., 10 h): 50 mg/L
- MIC against P. mirabilis (Proteus mirabilis; 96-well plate, 37° C., 10 h): 25 mg/L
- MIC against P. vulgaris (Proteus vulgaris; 96-well plate, 37° C., 10 h): 12.5 mg/L
- MIC against S. marcescens (Serratia marcescens; 96-well plate, 37° C., 10 h): 25 mg/L

Substance: PRT22 (WCEDNGGCEQICTSRVDGPLCSCVTGTLQEDGKSCR; listed as Homo sapiens)
- MIC (E. coli DH5α): 50 mg/L
- MIC (μg/mL) E. coli BL21 (E. coli BL21; [1]): 50 µg/mL
- MIC (μg/mL) P. aeruginosa (Pseudomonas aeruginosa; [2]): 25 µg/mL
- MIC (μg/mL) K. pneumonia (Klebsiella pneumonia; [3]): 12.5 µg/mL
- MIC (μg/mL) E. cloacae (Enterobacter cloacae; [4]): 12.5 µg/mL
- MIC (μg/mL) A. hydrophila (Aeromonas hydrophila; [5]): 25 µg/mL
- MIC (μg/mL) C. diversus (Citrobacter diversus; [6]): 12.5 µg/mL
- MIC (μg/mL) M. catarrhalis (Moraxella catarrhalis; [7]): 25 µg/mL
- MIC (μg/mL) P. mirabilis (Proteus mirabilis; [8]): 12.5 µg/mL
- MIC (μg/mL) P. vulgaris (Proteus vulgaris; [9]): 12.5 µg/mL
- MIC (μg/mL) S. marcescens (Serratia marcescens; [10]): 25 µg/mL

Substance: PRT199 (CLPETCNMKGICNNKHHCHCGYGWSPPYCQ; listed as Homo sapiens)
- MIC (E. coli DH5α): 25 mg/L
- MIC (μg/mL) E. coli BL21 (E. coli BL21; [11]): 12.5 µg/mL
- MIC (μg/mL) P. aeruginosa (Pseudomonas aeruginosa; P. aeruginosa, 10 h cultivation at 37° C.): 12.5 µg/mL
- MIC (μg/mL) K. pneumonia (Klebsiella pneumonia; K. pneumonia, 10 h cultivation at 37° C.): 12.5 µg/mL
- MIC (μg/mL) E. cloacae (Enterobacter cloacae; E. cloacae, 10 h cultivation at 37° C.): 12.5 µg/mL
- MIC (μg/mL) A. hydrophila (Aeromonas hydrophila; A. hydrophila, 10 h cultivation at 37° C.): 12.5 µg/mL
- MIC (μg/mL) C. diversus (Citrobacter diversus; C. diversus, 10 h cultivation at 37° C.): 12.5 µg/mL
- MIC (μg/mL) M. catarrhalis (Moraxella catarrhalis; M. catarrhalis, 10 h cultivation at 37° C.): 12.5 µg/mL
- MIC (μg/mL) P. mirabilis (Proteus mirabilis; P. mirabilis, 10 h cultivation at 37° C.): 12.5 µg/mL
- MIC (μg/mL) P. vulgaris (Proteus vulgaris; P. vulgaris, 10 h cultivation at 37° C.): 12.5 µg/mL
- MIC (μg/mL) S. marcescens (Serratia marcescens; S. marcescens, 10 h cultivation at 37° C.): 25 µg/mL
